Source: patent publication US10913736B2 (UNIVERSITY OF WASHINGTON, priority 2014, dated 2021)
≈ marks a conversion by molar mass, not a printed value. Where “and” joins values, the source holds several entries; their conditions need not be identical. Equal entries are not always repeated. Where two headings read alike, the source gives them in different places.

Columns and labels:
T. cruzi = T. cruzi growth inhibition EC50; format: cell-based
P. fal (3D37) = P. fal (3D37) growth inhibition EC50; format: cell-based; conditions: read-out: G) P. fal (3D37) EC50
E. faecium (ATCC 51559) = E. faecium (ATCC 51559) MIC/EC50; format: cell-based
E. faecalis (ATCC 29212) = E. faecalis (ATCC 29212) MIC/EC50; format: cell-based
S. aureus (ATCC 29213) = S. aureus (ATCC 29213) MIC/EC50; format: cell-based; conditions: Staphylococcus aureus, ATCC29213; S. aureus ATCC 29213; read-out: I) S. aureus (ATCC 29213) MIC/EC50, MIC
MetRS (Giardia) = MetRS (Giardia) (Giardia intestinalis, UniProt A8BY75); experiment: biochemical; conditions: read-out: D) MetRS (Giardia) aminoacylation assay with modified cpd dilution method IC50
MetRS (Giardia), sequence (A8BY75 entry or part of it): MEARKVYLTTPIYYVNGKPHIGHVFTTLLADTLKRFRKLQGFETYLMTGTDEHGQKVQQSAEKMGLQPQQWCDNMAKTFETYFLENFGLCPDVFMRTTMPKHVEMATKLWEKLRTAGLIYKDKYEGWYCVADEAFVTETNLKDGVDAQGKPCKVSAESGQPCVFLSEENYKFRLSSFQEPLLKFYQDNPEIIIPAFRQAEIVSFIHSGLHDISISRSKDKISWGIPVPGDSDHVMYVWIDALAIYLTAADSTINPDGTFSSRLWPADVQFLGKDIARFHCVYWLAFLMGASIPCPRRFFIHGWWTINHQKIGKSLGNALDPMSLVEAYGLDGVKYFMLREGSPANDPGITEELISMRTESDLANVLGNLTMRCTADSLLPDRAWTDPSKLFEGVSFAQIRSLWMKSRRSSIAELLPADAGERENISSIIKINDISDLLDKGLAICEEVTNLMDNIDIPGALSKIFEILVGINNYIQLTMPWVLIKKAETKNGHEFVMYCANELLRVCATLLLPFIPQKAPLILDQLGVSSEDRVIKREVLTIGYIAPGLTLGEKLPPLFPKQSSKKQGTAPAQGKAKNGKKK

L. amaz = L. amaz growth inhibition EC50; format: cell-based; conditions: read-out: F) L. amaz EC50
MetRS (T. brucei) = MetRS (T. brucei) (Trypanosoma brucei brucei, UniProt Q38C91); experiment: MetRS (T. brucei) ATP depletion assay using Kinase-Glo; format: biochemical
MetRS (T. brucei), sequence (Q38C91 entry or part of it): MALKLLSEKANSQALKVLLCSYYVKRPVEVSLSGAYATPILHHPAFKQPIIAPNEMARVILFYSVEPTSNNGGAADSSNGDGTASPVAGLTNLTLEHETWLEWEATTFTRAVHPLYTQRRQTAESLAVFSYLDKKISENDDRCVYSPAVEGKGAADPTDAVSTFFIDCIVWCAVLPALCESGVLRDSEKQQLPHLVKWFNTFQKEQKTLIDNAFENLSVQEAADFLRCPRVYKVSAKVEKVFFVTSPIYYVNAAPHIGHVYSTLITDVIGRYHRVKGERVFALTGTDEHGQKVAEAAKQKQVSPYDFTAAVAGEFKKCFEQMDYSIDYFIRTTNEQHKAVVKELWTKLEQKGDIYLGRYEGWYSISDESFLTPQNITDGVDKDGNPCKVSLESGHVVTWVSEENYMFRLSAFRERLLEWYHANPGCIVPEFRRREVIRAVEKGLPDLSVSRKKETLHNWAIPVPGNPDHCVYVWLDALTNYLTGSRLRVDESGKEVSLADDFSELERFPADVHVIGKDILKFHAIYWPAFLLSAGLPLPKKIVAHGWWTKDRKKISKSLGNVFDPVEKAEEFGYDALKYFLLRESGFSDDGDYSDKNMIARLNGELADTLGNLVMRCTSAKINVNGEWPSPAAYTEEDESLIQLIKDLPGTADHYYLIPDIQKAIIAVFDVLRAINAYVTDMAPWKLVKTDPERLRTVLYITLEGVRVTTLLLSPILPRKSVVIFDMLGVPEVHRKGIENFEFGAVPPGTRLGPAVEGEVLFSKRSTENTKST

MetRS (S. aureus) = MetRS (S. aureus) (Staphylococcus aureus, UniProt Q5HII6); experiment: biochemical; conditions: ATP depletion, Kinase-Glo; read-out: H) MetRS (S. aureus) ATP depletion assay using Kinase-Glo with modified cpd dilution method, IC50
MetRS (S. aureus), sequence (Q5HII6 whole entry): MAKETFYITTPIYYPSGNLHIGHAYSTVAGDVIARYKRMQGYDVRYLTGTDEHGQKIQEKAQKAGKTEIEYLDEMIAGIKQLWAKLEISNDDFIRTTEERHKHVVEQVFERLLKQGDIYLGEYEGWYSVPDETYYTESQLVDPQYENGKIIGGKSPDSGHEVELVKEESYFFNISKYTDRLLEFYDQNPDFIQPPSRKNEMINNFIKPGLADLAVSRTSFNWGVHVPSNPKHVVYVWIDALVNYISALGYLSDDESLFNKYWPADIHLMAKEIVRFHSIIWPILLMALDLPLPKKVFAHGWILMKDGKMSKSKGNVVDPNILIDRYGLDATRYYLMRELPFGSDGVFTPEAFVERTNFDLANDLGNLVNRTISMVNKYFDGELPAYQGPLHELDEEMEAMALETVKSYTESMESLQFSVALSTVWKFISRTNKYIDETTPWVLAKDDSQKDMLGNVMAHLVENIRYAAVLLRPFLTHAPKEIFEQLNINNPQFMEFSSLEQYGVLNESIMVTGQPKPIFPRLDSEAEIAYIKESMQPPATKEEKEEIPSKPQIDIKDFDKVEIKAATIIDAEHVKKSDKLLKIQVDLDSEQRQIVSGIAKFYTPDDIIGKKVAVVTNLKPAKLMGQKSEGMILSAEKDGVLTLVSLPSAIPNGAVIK

[1] = tested on: Giardia intestinalis (ATCC 50580); experiment: Giardia intestinalis (ATCC 50580) growth inhibition EC50; format: cell-based
[2] = tested on: S. aureus MRSA (ATCC 43300); experiment: S. aureus MRSA (ATCC 43300) MIC/EC50; format: cell-based; conditions: Staphylococcus aureus; S. aureus MRSA ATCC 43300; read-out: J) S. aureus MRSA (ATCC 43300) MIC/EC50, MIC
T. brucei = experiment: Growth inhibition assay of T. brucei cell cultures (Alamar Blue, 48 h); format: cell-based
[3] = Trypanosoma cruzi; read-out: C) T. cruzi EC50
[4] = Giardia duodenalis, ATCC50580; read-out: E) Giardia intestinalis (ATCC 50580) EC50
[5] = read-out: E) Giardia intestinalis (ATCC 50580) EC50

Compound	EC50 (T. cruzi; [3])	EC50 (T. cruzi; read-out: C) T. cruzi EC50)	EC50 (P. fal (3D37))	L) E. faecium (ATCC 51559) MIC/EC50, MIC (E. faecium (ATCC 51559))	K) E. faecalis (ATCC 29212) MIC/EC50, MIC (E. faecalis (ATCC 29212))	MIC (S. aureus (ATCC 29213))	IC50 (MetRS (Giardia))	EC50 (L. amaz)	IC50 (MetRS (T. brucei))	IC50 (MetRS (S. aureus))	EC50 [1, 4]	EC50 [1, 5]	MIC [2]	EC50 (T. brucei; Trypanosoma brucei; read-out: B) T. brucei EC50)	EC50 (T. brucei; read-out: B) T. brucei EC50)
Fc1ccc2nc(NCCCNCc3cc(Cl)cc(Cl)c3)[nH]c2n1 [Compound 1614, [(3,5-dichlorophenyl)methyl][3-({5-fluoro-3H-imidazo[4,5-b]pyridin-2-yl}amino)propyl]amine]	0.0395 µM	0.0357 µM	7.71 µM	1.25 mg/L	0.625 mg/L	1.25 mg/L (≈ 3.39 µM)	0.009 µM	> 1 µM	0.016 µM	0.037 µM	3.42 µM	1.98 µM			
Fc1ccc2nc(NCCCN[C@@H]3CCNc4c(Cl)cc(Cl)cc43)[nH]c2n1 [Compound 1717, (4R)-6,8-dichloro-N-[3-({5-fluoro-3H-imidazo[4,5-b]pyridin-2-yl}amino)propyl]-1,2,3,4-tetrahydroquinolin-4-amine]	> 0.00457 µM	0.00372 µM		>0.04 mg/L	> 0.04 mg/L and 0.079 mg/L	0.157 mg/L (≈ 0.384 µM)	0.003 µM	2.85 µM	0.028 µM	0.028 µM	0.59 µM	0.316 µM	0.157 mg/L (≈ 0.384 µM)		
Clc1cc(Cl)cc(CNCCCNc2nc3ncccc3[nH]2)c1 [Compound 1575, N1-(3,5-dichlorobenzyl)-N3-(1H-imidazo[4,5-b]pyridin-2-yl)propane-1,3-diamine]	0.193 µM		7.01 µM	0.625 mg/L			0.036 µM	> 10 µM	0.009 µM	0.035 µM				0.00936 µM	0.00764 µM
